The values below come from ChEMBL document CHEMBL1152966, “Synthesis of 2alpha-propoxy-1alpha,25-dihydroxyvitamin D3 and comparison of its metabolism by human CYP24A1 and rat CYP24A1” (Bioorg Med Chem, 2009).

Molecules are shown by their SMILES.

The target of data set [1] is T1, Vitamin D3 receptor (Bos taurus) (UniProt Q28037).
T1 sequence (whole entry): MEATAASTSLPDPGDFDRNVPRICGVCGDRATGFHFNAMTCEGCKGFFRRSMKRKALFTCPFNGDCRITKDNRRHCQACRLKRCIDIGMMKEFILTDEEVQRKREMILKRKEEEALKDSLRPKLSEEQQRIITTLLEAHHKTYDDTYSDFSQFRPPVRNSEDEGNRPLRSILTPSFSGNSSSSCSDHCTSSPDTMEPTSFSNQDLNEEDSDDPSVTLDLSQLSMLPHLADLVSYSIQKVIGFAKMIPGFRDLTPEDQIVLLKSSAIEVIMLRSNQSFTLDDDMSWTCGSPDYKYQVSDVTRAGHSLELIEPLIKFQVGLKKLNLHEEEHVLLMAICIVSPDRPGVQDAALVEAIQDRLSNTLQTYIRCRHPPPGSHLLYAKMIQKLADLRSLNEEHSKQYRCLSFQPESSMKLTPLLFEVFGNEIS
Nature of the data set: Binding affinity to bovine thymus VDR relative to 1-alpha,25-dihydroxyvitamin D3.

The target in data set [2] is T2, Vitamin D-binding protein (Homo sapiens) (UniProt P02774).
T2 sequence (whole entry): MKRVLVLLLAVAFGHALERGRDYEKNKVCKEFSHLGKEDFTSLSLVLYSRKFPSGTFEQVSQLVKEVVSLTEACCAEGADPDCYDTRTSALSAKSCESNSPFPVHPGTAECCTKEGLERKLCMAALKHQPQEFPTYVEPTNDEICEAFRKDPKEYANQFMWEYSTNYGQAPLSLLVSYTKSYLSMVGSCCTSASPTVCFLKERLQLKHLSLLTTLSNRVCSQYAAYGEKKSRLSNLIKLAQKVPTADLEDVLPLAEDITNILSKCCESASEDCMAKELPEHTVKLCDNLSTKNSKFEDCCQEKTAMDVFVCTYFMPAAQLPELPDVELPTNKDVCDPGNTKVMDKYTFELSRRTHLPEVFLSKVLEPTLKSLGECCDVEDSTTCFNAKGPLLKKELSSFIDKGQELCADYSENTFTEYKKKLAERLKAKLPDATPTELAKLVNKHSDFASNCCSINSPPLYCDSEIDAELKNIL
Description: Binding affinity to vitamin D-binding protein relative to 1-alpha,25-dihydroxyvitamin D3.

In data set [3] the target is T1, Vitamin D3 receptor (Bos taurus). Description: Displacement of [3H]1-alpha,25-dihydroxyvitamin D3 from calf thymus VDR by liquid scintillation counting.
Data set [4] has as its target T3, 1,25-dihydroxyvitamin D(3) 24-hydroxylase, mitochondrial (Homo sapiens, UniProt Q07973).
T3 sequence (Q07973 whole entry): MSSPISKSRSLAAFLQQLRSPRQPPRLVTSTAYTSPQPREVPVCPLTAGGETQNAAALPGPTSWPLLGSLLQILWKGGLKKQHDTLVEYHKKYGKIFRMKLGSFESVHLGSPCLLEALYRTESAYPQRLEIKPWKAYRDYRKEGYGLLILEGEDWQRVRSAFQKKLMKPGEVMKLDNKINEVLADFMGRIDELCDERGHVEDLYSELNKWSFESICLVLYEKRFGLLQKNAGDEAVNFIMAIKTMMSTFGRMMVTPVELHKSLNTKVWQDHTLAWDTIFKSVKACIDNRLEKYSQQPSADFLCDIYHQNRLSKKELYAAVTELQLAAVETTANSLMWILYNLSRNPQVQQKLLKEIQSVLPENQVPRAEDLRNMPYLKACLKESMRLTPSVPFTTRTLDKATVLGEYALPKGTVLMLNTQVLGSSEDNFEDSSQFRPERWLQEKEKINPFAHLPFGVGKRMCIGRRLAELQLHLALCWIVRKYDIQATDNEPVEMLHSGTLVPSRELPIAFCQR
Nature of the data set: Binding affinity to human CYP24A1 expressed in Escherichia coli assessed as catalytic efficiency after 60 mins relative 1-alpha,25-dihydroxyvitamin D3. The following applies: 1 h.

`C=C1/C(=C\C=C2/CCC[C@]3(C)[C@@H]([C@H](C)CCCC(C)(C)O)CC[C@@H]23)C[C@H](O)[C@@H](OCCC)[C@H]1O` registered an Activity in data set [1] of 64%.

Consider `C=C1/C(=C\C=C2/CCC[C@]3(C)[C@@H]([C@H](C)CCCC(C)(C)O)CC[C@@H]23)C[C@H](O)[C@H](OCCCO)[C@H]1O`, for which the Activity in data set [2] was 2; in data set [1] it was 13%.

`C=C1/C(=C\C=C2/CCC[C@]3(C)[C@@H]([C@H](C)CCCC(C)(C)O)CC[C@@H]23)C[C@H](O)[C@@H](OCCCO)[C@H]1O`: the Activity amounted to 180% in data set [1], 180% in data set [3] and 2% in data set [4].
